Experiments:
Type in all cases: in vivo
corn [1] = experiment: Post-emergence safener action in corn with the herbicide tembotrione; details: greenhouse, visual scoring of damage
Source text: (§1) The damage to the plants is scored visually using a scale of 0-100%, in comparison to control plants:
(§2) 0%=no noticeable effect compared to the untreated plant
(§3) 100%=the treated plants dies.
(§4) Seeds or rhizome pieces of monocotyledonous and dicotyledonous harmful plants and crop plants are placed in sandy loam soil in plastic pots, covered with soil and cultivated in the greenhouse under good growth conditions. Alternatively, harmful plants encountered in paddy rice cultivation are cultivated in pots in which the surface of the soil is covered by up to 2 cm of water. Three weeks after sowing, the test plants are treated at the three-leaf stage. The herbicide/safener active compound combinations according to the invention, formulated as emulsion concentrates, and in parallel tests the individual active compounds formulated in a corresponding manner, are sprayed at various dosages at a water application rate of […] (converted) onto the green parts of the plants, and, after the test plants were left to stand in the greenhouse for about 2 to 3 weeks under optimum growth conditions, the effect of the preparations is scored visually in comparison to untreated controls. In the case of rice or harmful plants encountered in the cultivation of rice, the active compounds are also added directly to the irrigation water (application analogously to the so-called granule application) or sprayed onto the plants and into the irrigation water. […]

corn [2] = experiment: Pre-emergence safener action in corn with the herbicide isoxaflutol; details: greenhouse, visual scoring after 3 to 4 weeks
Source text: as §1, §2, §3
Seeds or rhizome pieces of monocotyledonous and dicotyledonous weed plants and crop plants were placed in sandy loam soil in plastic pots and covered with soil. The herbicide/safener active compound combinations according to the invention, formulated as suspension emulsion concentrates, and in parallel tests the individual active compounds formulated in a corresponding manner, were then, at various dosages at a water application rate of 600 to 800 l/ha (converted), applied to the surface of the covering soil.
After the treatment, the pots were placed in the greenhouse and kept under good growth conditions for the weeds and the crop plants. Visual scoring of the plant damage or emergence damage was carried out after the test plants had emerged after a test period of 3 to 4 weeks, in comparison to untreated controls.

barley = experiment: Post-emergence safener action in barley with the herbicide mesosulfuron-methyl; details: greenhouse, visual scoring of damage
Source text: as §1, §2, §3, §4

CC(C)CNC(=O)c1ccc(C(F)(F)C(F)(F)C(F)(F)F)[nH]c1=O [Compound 1625]
safener action for the herbicide tembotrione (corn [1]): good safener action | safener action in combination with the herbicide isoxaflutol (corn [2]): good safener action

O=C(c1ccc(C(F)(F)Cl)[nH]c1=O)N1CCCC1 [Compound 217]
safener action in combination with the herbicide isoxaflutol (corn [2]): good safener action

CC(C)NC(=O)c1ccc(C(F)F)[nH]c1=O [Compound 232, 6-Difluoromethyl-N-isopropyl-2-oxo-1,2-dihydropyridine-3-carboxamide]
safener action in combination with the herbicide isoxaflutol (corn [2]): good safener action

CCONC(=O)c1ccc(C(F)(F)Cl)[nH]c1=O [Compound 193]
safener action in combination with the herbicide isoxaflutol (corn [2]): good safener action | safener action for the herbicide mesosulfuron-methyl (barley): good safener action

CCCC(C)NC(=O)c1ccc(C(F)F)[nH]c1=O (centres unmarked) [Compound 271]
safener action in combination with the herbicide isoxaflutol (corn [2]): good safener action

CCNC(=O)c1ccc(C(F)(F)F)[nH]c1=O [Compound 2]
safener action in combination with the herbicide isoxaflutol (corn [2]): good safener action | safener action for the herbicide mesosulfuron-methyl (barley): good safener action

CCC(C)NC(=O)c1ccc(C(F)(F)C(F)(F)C(F)(F)F)[nH]c1=O (centres unmarked) [Compound 1636]
safener action for the herbicide tembotrione (corn [1]): good safener action | safener action in combination with the herbicide isoxaflutol (corn [2]): good safener action | safener action for the herbicide mesosulfuron-methyl (barley): good safener action

O=C(NC1CCCCC1)c1ccc(C(F)(F)F)[nH]c1=O [Compound 19]
safener action in combination with the herbicide isoxaflutol (corn [2]): good safener action

NC(=O)c1ccc(C(F)(F)C(F)(F)F)[nH]c1=O [Compound 341, 2-Oxo-6-(pentafluoroethyl)-1,2-dihydropyridine-3-carboxamide]
safener action for the herbicide tembotrione (corn [1]): good safener action | safener action in combination with the herbicide isoxaflutol (corn [2]): good safener action | safener action for the herbicide mesosulfuron-methyl (barley): good safener action

C#CCNC(=O)c1ccc(C(F)(F)C(F)(F)F)[nH]c1=O [Compound 380]
safener action in combination with the herbicide isoxaflutol (corn [2]): good safener action

CCC(CC)NC(=O)c1ccc(C(F)(F)C(F)(F)F)[nH]c1=O [Compound 392]
safener action in combination with the herbicide isoxaflutol (corn [2]): good safener action | safener action for the herbicide mesosulfuron-methyl (barley): good safener action

CC(C)(C)NC(=O)c1ccc(C(F)(F)Cl)[nH]c1=O [Compound 122]
safener action in combination with the herbicide isoxaflutol (corn [2]): good safener action

CCNC(=O)c1ccc(C(F)(F)C(F)(F)C(F)(F)F)[nH]c1=O [Compound 1597]
safener action for the herbicide tembotrione (corn [1]): good safener action | safener action in combination with the herbicide isoxaflutol (corn [2]): good safener action

COC(=O)CN(C)C(=O)c1ccc(C(F)(F)F)[nH]c1=O [Compound 72]
safener action in combination with the herbicide isoxaflutol (corn [2]): good safener action

C#CCNC(=O)c1ccc(C(F)(F)F)[nH]c1=O [Compound 39]
safener action in combination with the herbicide isoxaflutol (corn [2]): good safener action

CNC(=O)c1ccc(C(F)(F)C(F)F)[nH]c1=O [Compound 1368, N-Methyl-2-oxo-6-(1,1,2,2-tetrafluoroethyl)-1,2-dihydropyridine-3-carboxamide]
safener action for the herbicide tembotrione (corn [1]): good safener action | safener action in combination with the herbicide isoxaflutol (corn [2]): good safener action

CCC(C)NC(=O)c1ccc(C(F)(F)Cl)[nH]c1=O (centres unmarked) [Compound 155]
safener action in combination with the herbicide isoxaflutol (corn [2]): good safener action | safener action for the herbicide mesosulfuron-methyl (barley): good safener action

CONC(=O)c1ccc(C(F)(F)Cl)[nH]c1=O [Compound 194]
safener action in combination with the herbicide isoxaflutol (corn [2]): good safener action | safener action for the herbicide mesosulfuron-methyl (barley): good safener action

CCOC(CNC(=O)c1ccc(C(F)(F)Cl)[nH]c1=O)OCC [Compound 169]
safener action for the herbicide tembotrione (corn [1]): good safener action | safener action for the herbicide mesosulfuron-methyl (barley): good safener action
